Holding throughout (type): biochemical
One experiment deals with T1, MAP2K1 (Homo sapiens, UniProt Q02750).
T1 construct: purchased Invitrogen (assay run by Invitrogen)
Briefly: Z'-Lyte FRET kinase assay (Invitrogen), MAP2K1. The note with it: read-out: IC50, activity toward kinase MAP2K1.

The target of the next experiment is T2, Itk (Homo sapiens, UniProt Q08881).
T2 sequence (Q08881 1-620): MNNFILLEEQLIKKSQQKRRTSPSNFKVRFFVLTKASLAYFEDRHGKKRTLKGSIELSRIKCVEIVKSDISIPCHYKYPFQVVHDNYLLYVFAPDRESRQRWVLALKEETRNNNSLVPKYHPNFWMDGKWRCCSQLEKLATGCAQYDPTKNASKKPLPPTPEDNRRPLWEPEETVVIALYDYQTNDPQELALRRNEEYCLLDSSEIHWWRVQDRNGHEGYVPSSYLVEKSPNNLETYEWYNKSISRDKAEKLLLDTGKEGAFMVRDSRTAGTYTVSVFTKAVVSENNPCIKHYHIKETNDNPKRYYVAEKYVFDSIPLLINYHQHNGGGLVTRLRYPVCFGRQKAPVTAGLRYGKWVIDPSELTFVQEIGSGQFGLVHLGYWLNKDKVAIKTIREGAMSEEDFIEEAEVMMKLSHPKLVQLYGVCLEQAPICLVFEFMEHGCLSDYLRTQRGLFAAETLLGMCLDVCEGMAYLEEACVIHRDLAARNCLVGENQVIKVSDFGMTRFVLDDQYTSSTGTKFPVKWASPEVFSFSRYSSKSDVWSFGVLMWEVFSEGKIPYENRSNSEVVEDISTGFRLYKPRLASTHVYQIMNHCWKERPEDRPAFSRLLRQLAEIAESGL
In words: AlphaScreen kinase assay, Itk. The note with it: read-out: IC50, activity toward kinase Itk. Put shortly: (§1)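 Stock 20 mM compound in DMSO, diluted 1:3 serially to 8 final concentrations. Kinase phosphorylates biotinylated peptide; donor (streptavidin) and acceptor (anti-phospho antibody) beads then associate. Reduced acceptor emission indicates inhibition.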
A general note: Alpha assays give light when donor and acceptor beads are brought close together.

A further experiment addresses T3, Flt4 (Homo sapiens, UniProt P35916).
T3 construct: purchased ProQinase GmbH (Freiburg, Germany)
In words: AlphaScreen kinase assay, Flt4. The note with it: read-out: IC50, activity toward kinase Flt4. Put shortly:
as §1

A further experiment addresses T4, Jnk2 (Homo sapiens, UniProt P45984).
T4 construct: purchased Roche Protein Expression Group (Indianapolis, IN)
In words: AlphaScreen kinase assay, Jnk2. The settings on record: read-out: IC50, activity toward kinase Jnk2. Put shortly: as §1

In general, IC50 refers to the midpoint of a concentration-inhibition curve.

T1 sequence (Q02750 whole entry): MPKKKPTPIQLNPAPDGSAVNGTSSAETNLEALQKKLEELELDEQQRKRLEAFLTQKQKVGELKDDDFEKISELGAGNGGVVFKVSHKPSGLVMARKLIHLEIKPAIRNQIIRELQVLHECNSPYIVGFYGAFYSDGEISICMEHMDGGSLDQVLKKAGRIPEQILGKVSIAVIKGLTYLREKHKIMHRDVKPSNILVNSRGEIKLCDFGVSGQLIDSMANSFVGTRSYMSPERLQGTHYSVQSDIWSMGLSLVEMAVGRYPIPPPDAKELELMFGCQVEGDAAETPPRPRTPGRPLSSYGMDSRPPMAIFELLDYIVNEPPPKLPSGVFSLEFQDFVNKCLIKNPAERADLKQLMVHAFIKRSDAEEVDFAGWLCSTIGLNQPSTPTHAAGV
T4 sequence (P45984 whole entry): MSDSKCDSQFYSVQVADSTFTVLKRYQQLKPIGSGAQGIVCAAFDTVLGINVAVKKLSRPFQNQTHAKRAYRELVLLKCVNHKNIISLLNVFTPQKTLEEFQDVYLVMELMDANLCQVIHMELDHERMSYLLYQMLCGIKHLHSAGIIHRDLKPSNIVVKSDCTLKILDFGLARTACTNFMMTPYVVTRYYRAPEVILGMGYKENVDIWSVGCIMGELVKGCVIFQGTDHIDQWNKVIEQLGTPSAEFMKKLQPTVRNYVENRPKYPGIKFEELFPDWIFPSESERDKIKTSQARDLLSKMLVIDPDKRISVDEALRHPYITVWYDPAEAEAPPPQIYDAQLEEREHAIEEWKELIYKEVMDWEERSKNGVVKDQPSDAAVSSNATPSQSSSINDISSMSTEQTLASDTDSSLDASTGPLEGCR
T3 sequence (P35916 25-1363): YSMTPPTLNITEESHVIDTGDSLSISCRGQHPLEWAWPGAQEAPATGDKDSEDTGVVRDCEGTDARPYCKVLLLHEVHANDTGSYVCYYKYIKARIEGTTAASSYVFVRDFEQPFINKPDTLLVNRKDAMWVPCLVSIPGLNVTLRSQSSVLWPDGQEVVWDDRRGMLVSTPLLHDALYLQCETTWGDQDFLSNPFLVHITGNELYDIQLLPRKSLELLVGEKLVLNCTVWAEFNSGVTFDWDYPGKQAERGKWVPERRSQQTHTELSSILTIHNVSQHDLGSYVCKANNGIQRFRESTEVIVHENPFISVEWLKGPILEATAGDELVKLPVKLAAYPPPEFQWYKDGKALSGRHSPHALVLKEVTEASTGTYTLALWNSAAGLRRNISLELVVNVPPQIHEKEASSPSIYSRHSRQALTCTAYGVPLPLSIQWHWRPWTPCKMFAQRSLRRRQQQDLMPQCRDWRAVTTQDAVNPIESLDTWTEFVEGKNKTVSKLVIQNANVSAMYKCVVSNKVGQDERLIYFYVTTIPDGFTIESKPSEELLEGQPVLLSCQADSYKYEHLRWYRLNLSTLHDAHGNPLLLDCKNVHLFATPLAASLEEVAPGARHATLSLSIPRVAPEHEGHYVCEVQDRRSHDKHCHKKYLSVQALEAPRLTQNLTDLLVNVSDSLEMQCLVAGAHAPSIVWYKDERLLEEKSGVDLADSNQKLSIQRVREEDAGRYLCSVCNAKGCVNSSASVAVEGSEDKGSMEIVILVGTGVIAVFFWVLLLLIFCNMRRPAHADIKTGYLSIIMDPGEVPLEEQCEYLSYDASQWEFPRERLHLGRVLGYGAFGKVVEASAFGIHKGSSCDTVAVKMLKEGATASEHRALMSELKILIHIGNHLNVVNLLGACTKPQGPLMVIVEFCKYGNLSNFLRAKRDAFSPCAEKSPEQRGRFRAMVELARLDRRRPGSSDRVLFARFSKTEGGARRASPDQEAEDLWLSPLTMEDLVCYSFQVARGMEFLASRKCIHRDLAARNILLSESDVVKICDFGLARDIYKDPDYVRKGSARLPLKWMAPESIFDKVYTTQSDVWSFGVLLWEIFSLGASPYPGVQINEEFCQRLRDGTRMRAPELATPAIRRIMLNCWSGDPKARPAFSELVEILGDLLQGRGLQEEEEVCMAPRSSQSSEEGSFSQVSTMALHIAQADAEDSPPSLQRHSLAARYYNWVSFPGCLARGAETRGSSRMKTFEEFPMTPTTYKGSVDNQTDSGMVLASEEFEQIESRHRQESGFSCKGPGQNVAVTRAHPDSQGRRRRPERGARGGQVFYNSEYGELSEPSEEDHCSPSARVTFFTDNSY
Excerpt for MAP2K1: For example, direct radiometric, indirect FRET or AlphaScreen assays may be used to assess the level of phosphorylation of a substrate in the presence of test compounds in order to determine the inhibitory affect of the compound on the kinase. […] For these assays, compounds of the invention were screened by Invitrogen using Z′-Lyte™ kinase assay.
Briefly, the Invitrogen kinase assay involves use of a specific peptide substrate optimized for each kinase, containing a fluorophore at each end that make up the FRET pair. The peptide sensitivity to proteolytic cleavage depends on phosphorylation of the peptide. Non-phosphorylated peptide is cleaved by a protease while peptide phosphorylated by the kinase is not cleaved. Cleavage of the peptide disrupts the FRET between the donor (coumarin) and acceptor (fluorescein) fluorophores, resulting in an increase in the ratio of donor emission to acceptor emission. The emission ratio of coumarin to fluorescein is used to assess the reaction progress. […] Thus, the assay involves a kinase reaction in the presence of varying concentrations of a given compound, a development reaction with site specific protease, and detection of the fluorescent emission ratio of coumarin and fluorscein. […] Reaction conditions for each kinase are determined to provide optimal reaction times, incubation temperature, kinase and ATP concentrations. Test samples are made up in 1× kinase buffer (50 mM HEPES pH 7.5, 50 mM MgCl2, 5 mM EGTA, 0.05% BRIJ-35) and compound at desired concentration prepared in DMSO such that the final DMSO is 1%. […] All kinase except for MAP2K1 were at 10 μM ATP in the kinase reaction, while MAP2K1 was at 100 μM. Samples are mixed and the kinase reaction is incubated 1 hour at room temperature, after which 5 μl of development solution is added and mixed. After incubation for another 1 hour at room temperature, 5 μl of stop reagent is added to each sample and mixed. The fluorescence signals are measured to determine the emission ratio.

For the compound `Nc1cccc(-c2cnc3[nH]cc(C(=O)c4cc(O)ccc4F)c3c2)c1` [Compound P-0002], the IC50 on MAP2K1 and on Itk was at most 10 µM in each case.
For `Nc1cccc(-c2cnc3[nH]cc(C(=O)c4cccc(O)c4)c3c2)c1` [Compound P-0003], the half-maximal inhibitory concentration (IC50) at Flt4, at MAP2K1 and at Itk was at most 10 µM in each case.
Regarding `Cc1c(O)cccc1C(=O)c1c[nH]c2ncc(-c3cccnc3)cc12` [Compound P-0006, (3-Hydroxy-2-methyl-phenyl)-(5-pyridin-3-yl-1H-pyrrolo[2,3b]pyridin-3-yl)-methanone], the IC50 on Jnk2, at MAP2K1 and at Itk was at most 10 µM throughout.
As for `CS(=O)(=O)c1cccc(-c2cnc3[nH]cc(C(=O)c4cc(O)ccc4F)c3c2)c1` [Compound P-0008, (2-Fluoro-5-hydroxy-phenyl)-[5-(3-methanesulfonyl-phenyl)-1H-pyrrolo[2,3-b]pyridin-3-yl]-methanone], the IC50 at MAP2K1 and at Itk was at most 10 µM each time.
